Patent US8877748B2, “Heterocyclic fused anthraquinone derivatives, manufacturing method and pharmaceutical composition using thereof” (National Defense Medical Center, priority 2012, dated 2014)

Legend:
NCI-H522 = test: NCI one-dose screening, non-small cell lung cancer NCI-H522; type: cell-based, human; conditions: 10 μM
NCI-H23 = test: NCI one-dose screening, non-small cell lung cancer NCI-H23; type: cell-based, human; conditions: 10 μM
UACC-62 = test: NCI one-dose screening, melanoma UACC-62; type: cell-based, human; conditions: 10 μM
RXF, 393 = test: NCI one-dose screening, renal cancer RXF, 393; type: cell-based, human; conditions: 10 μM
SF-295 = test: NCI one-dose screening, CNS cancer SF-295; type: cell-based, human; conditions: 10 μM
HOP-92 = test: NCI one-dose screening, non-small cell lung cancer HOP-92; type: cell-based, human; conditions: 10 μM
T-47D = test: NCI one-dose screening, breast cancer T-47D; type: cell-based, human; conditions: 10 μM
SK-OV-3 = test: NCI one-dose screening, ovarian cancer SK-OV-3; type: cell-based, human; conditions: 10 μM
SF-539 = test: NCI one-dose screening, CNS cancer SF-539; type: cell-based, human; conditions: 10 μM
HL-60, TB = test: NCI one-dose screening, leukemia HL-60, TB; type: cell-based, human; conditions: 10 μM
NCl/ADR-RES = test: NCI one-dose screening, breast cancer NCl/ADR-RES; type: cell-based, human; conditions: 10 μM; listed under Ovarian cancer
K562cell line = test: NCI one-dose screening, leukemia K562; type: cell-based, human; conditions: 10 μM
DU145 = test: NCI one-dose screening, prostate cancer DU145; type: cell-based, human; conditions: 10 μM
COLO 205 = test: NCI one-dose screening, colon cancer COLO 205; type: cell-based, human; conditions: 10 μM
MALME-3M = test: NCI one-dose screening, melanoma MALME-3M; type: cell-based, human; conditions: 10 μM
human tumor cell lines = test: NCI one-dose screening, Mean / Delta / Range of growth percent over all tested cell lines; type: cell-based; conditions: 10 μM
PC-3 = test: NCI one-dose screening, prostate cancer PC-3; type: cell-based, human; conditions: 10 μM
ACHN = test: NCI one-dose screening, renal cancer ACHN; type: cell-based, human; conditions: 10 μM
IGROV1 = test: NCI one-dose screening, ovarian cancer IGROV1; type: cell-based, human; conditions: 10 μM
[1] = test system: PC-3 prostate cancer cell line; test: SRB assay cell viability, PC-3 prostate cancer cell line; type: cell-based, human; conditions: Homo sapiens, PC-3 prostate cancer cell line, Table II prints no unit, μM printed, read-out: SRB assay: 50% inhibition of cancer cell proliferation of sample concentration (IC50) of PC-3 prostate cancer cell line
TK-10 = test: NCI one-dose screening, renal cancer TK-10; type: cell-based, human; conditions: 10 μM
CAKI-1 = test: NCI one-dose screening, renal cancer CAKI-1; type: cell-based, human; conditions: 10 μM
MDA, -MB-435 = test: NCI one-dose screening, breast cancer MDA, -MB-435; type: cell-based, human; conditions: 10 μM; listed under Melanoma
OVCAR-8 = test: NCI one-dose screening, ovarian cancer OVCAR-8; type: cell-based, human; conditions: 10 μM
[2] = NCI one-dose screening, renal cancer A489; type: cell-based, human; conditions: 10 μM
SK-MEL-28 = test: NCI one-dose screening, melanoma SK-MEL-28; type: cell-based, human; conditions: 10 μM
SNB-19 = test: NCI one-dose screening, CNS cancer SNB-19; type: cell-based, human; conditions: 10 μM
OVCAR-3 = test: NCI one-dose screening, ovarian cancer OVCAR-3; type: cell-based, human; conditions: 10 μM
U251 = test: NCI one-dose screening, CNS cancer U251; type: cell-based, human; conditions: 10 μM
PRMI-8226 cell line = test: NCI one-dose screening, leukemia PRMI-8226; type: cell-based, human; conditions: 10 μM
M14 = test: NCI one-dose screening, melanoma M14; type: cell-based, human; conditions: 10 μM
HCT-15 = test: NCI one-dose screening, colon cancer HCT-15; type: cell-based, human; conditions: 10 μM
UO-31 = test: NCI one-dose screening, renal cancer UO-31; type: cell-based, human; conditions: 10 μM
BT-549 = test: NCI one-dose screening, breast cancer BT-549; type: cell-based, human; conditions: 10 μM
SK-MEL-2 = test: NCI one-dose screening, melanoma SK-MEL-2; type: cell-based, human; conditions: 10 μM
HCT-116 = test: NCI one-dose screening, colon cancer HCT-116; type: cell-based, human; conditions: 10 μM
MOLT-4 = test: NCI one-dose screening, leukemia MOLT-4; type: cell-based, human; conditions: 10 μM
SK-MEL-5 = test: NCI one-dose screening, melanoma SK-MEL-5; type: cell-based, human; conditions: 10 μM
KM12 = test: NCI one-dose screening, colon cancer KM12; type: cell-based, human; conditions: 10 μM
HS 578-T = test: NCI one-dose screening, breast cancer HS 578-T; type: cell-based, human; conditions: 10 μM; Breast cancer
NCI-H226 = test: NCI one-dose screening, non-small cell lung cancer NCI-H226; type: cell-based, human; conditions: 10 μM
HT29 = test: NCI one-dose screening, colon cancer HT29; type: cell-based, human; conditions: 10 μM
SNB-75 = test: NCI one-dose screening, CNS cancer SNB-75; type: cell-based, human; conditions: 10 μM
SR = test: NCI one-dose screening, leukemia SR; type: cell-based, human; conditions: 10 μM
MDA-MB-231/ATCC = test: NCI one-dose screening, breast cancer MDA-MB-231/ATCC; type: cell-based, human; conditions: 10 μM
A549/ATCC = test: NCI one-dose screening, non-small cell lung cancer A549/ATCC; type: cell-based, human; conditions: 10 μM
NCI-H460 = test: NCI one-dose screening, non-small cell lung cancer NCI-H460; type: cell-based, human; conditions: 10 μM
HOP-62 = test: NCI one-dose screening, non-small cell lung cancer HOP-62; type: cell-based, human; conditions: 10 μM
786-O = test: NCI one-dose screening, renal cancer 786-O; type: cell-based, human; conditions: 10 μM
SF-268 = test: NCI one-dose screening, CNS cancer SF-268; type: cell-based, human; conditions: 10 μM
HCC-2998 = test: NCI one-dose screening, colon cancer HCC-2998; type: cell-based, human; conditions: 10 μM
MDA-MB-468 = test: NCI one-dose screening, breast cancer MDA-MB-468; type: cell-based, human; conditions: 10 μM
MCF7 = test: NCI one-dose screening, breast cancer MCF7; type: cell-based, human; conditions: 10 μM
SN12C = test: NCI one-dose screening, renal cancer SN12C; type: cell-based, human; conditions: 10 μM
UACC-257 = test: NCI one-dose screening, melanoma UACC-257; type: cell-based, human; conditions: 10 μM
OVCAR-5 = test: NCI one-dose screening, ovarian cancer OVCAR-5; type: cell-based, human; conditions: 10 μM
EKVX = test: NCI one-dose screening, non-small cell lung cancer EKVX; type: cell-based, human; conditions: 10 μM
LOX IMVI = test: NCI one-dose screening, melanoma LOX IMVI; type: cell-based, human; conditions: 10 μM

SMILES: CSc1ccc(Sc2cc3c(c4nsnc24)C(=O)c2ccccc2C3=O)cc1 [C43, 4-(4-(methylthio)phenylthio)anthra[2,1-c] [1,2,5]thiadiazol-6,11-dione]
- Growth Percent NCI-H522 (NCI-H522): 95.39%
- Growth Percent NCI-H23 (NCI-H23): 81.49%
- Growth Percent UACC-62 (UACC-62): 110.99%
- Growth Percent RXF 393 (RXF, 393): 106.98%
- Growth Percent SF-295 (SF-295): 98.897%
- Growth Percent HOP-92 (HOP-92): 04.31%
- Growth Percent T-47D (T-47D): 86.56%
- Growth Percent SK-OV-3 (SK-OV-3): 102.46%
- Growth Percent SF-539 (SF-539): 96.48%
- Growth Percent HL-60(TB) (HL-60, TB): 105.25%
- Growth Percent NCI/ADR-RES (NCl/ADR-RES): 91.79%
- Growth Percent K562 (K562cell line): 67.50%
- Growth Percent DU145 (DU145): 101.05%
- Growth Percent COLO 205 (COLO 205): 117.30%
- Growth Percent MALME-3M (MALME-3M): 104.58%
- Growth Percent Delta (human tumor cell lines; delta over all cell lines): 40.76%
- Growth Percent Mean (human tumor cell lines; mean over all cell lines): 96.80%
- Growth Percent Range (human tumor cell lines; range over all cell lines): 72.06%
- Growth Percent PC-3 (PC-3): 78.37%
- Growth Percent ACHN (ACHN): 103.64%
- Growth Percent IGROV1 (IGROV1): 95.67%
- IC50 [1]: > 15 µM
- Growth Percent TK-10 (TK-10): 128.10%
- Growth Percent CAKI-1 (CAKI-1): 99.44%
- Growth Percent MDA-MB-435 (MDA, -MB-435): 118.40%
- Growth Percent OVCAR-8 (OVCAR-8): 97.37%
- Growth Percent A498 [2]: 56.04%
- Growth Percent SK-MEL-28 (SK-MEL-28): 119.66%
- Growth Percent SNB-19 (SNB-19): 101.61%
- Growth Percent OVCAR-3 (OVCAR-3): 102.89%
- Growth Percent U251 (U251): 103.89%
- Growth Percent RPMI-8226 (PRMI-8226 cell line): 88.58%
- Growth Percent M14 (M14): 107.55%
- Growth Percent HCT-15 (HCT-15): 111.56%
- Growth Percent UO-31 (UO-31): 67.56%
- Growth Percent BT-549 (BT-549): 107.82%
- Growth Percent SK-MEL-2 (SK-MEL-2): 89.27%
- Growth Percent HCT-116 (HCT-116): 101.97%
- Growth Percent MOLT-4 (MOLT-4): 59.93%
- Growth Percent SK-MEL-5 (SK-MEL-5): 101.45%
- Growth Percent KM12 (KM12): 100.42%
- Growth Percent HS 578T (HS 578-T): 96.47%
- Growth Percent NCI-H226 (NCI-H226): 79.69%
- Growth Percent HT29 (HT29): 102.26%
- Growth Percent SNB-75 (SNB-75): 75.08%
- Growth Percent SR (SR): 96.31%
- Growth Percent MDA-MB-231/ATCC (MDA-MB-231/ATCC): 78.80%
- Growth Percent A549/ATCC (A549/ATCC): 104.69%
- Growth Percent NCI-H460 (NCI-H460): 106.20%
- Growth Percent HOP-62 (HOP-62): 102.09%
- Growth Percent 786-0 (786-O): 109.83%
- Growth Percent SF-268 (SF-268): 89.67%
- Growth Percent HCC-2998 (HCC-2998): 111.01%
- Growth Percent MDA-MB-468 (MDA-MB-468): 82.25%
- Growth Percent MCF7 (MCF7): 82.87%
- Growth Percent SN12C (SN12C): 98.04%
- Growth Percent UACC-257 (UACC-257): 109.51%
- Growth Percent OVCAR-5 (OVCAR-5): 108.31%
- Growth Percent EKVX (EKVX): 113.82%
- Growth Percent LOX IMVI (LOX IMVI): 68.98%
